From ChEMBL document CHEMBL1201862, “PubChem BioAssay data set” (2004)
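Interpolation was linear, between the two tested concentrations surrounding the appropriate level; five concentrations were tested over 48 hours in 96-well plates. At the GI50, growth is halved.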 Activity calls are given as the source filed them. No stated cut-off is given here; in the data, active = GI50 up to about 1.1 µM and inactive = higher.

How the values were obtained:
Experiment in all cases: inhibition of tumour cell growth, NCI panel, 48 h
EKVX = system: EKVX
NCI-H226 = system: NCI-H226
HT-29 = system: HT-29
RXF 393 = system: RXF 393
OVCAR-4 = system: OVCAR-4
SW-620 = system: SW-620
OVCAR-5 = system: OVCAR-5
HCC 2998 = system: HCC 2998
HCT-15 = system: HCT-15
TK-10 = system: TK-10
UACC-62 = system: UACC-62
CAKI-1 = system: CAKI-1
NCI-H23 = system: NCI-H23
SF-539 = system: SF-539
SF-295 = system: SF-295
NCI-H522 = system: NCI-H522
A549 = system: A549
HOP-92 = system: HOP-92
OVCAR-3 = system: OVCAR-3
SK-OV-3 = system: SK-OV-3

Structure (SMILES) | GI50 (EKVX) | GI50 (NCI-H226) | GI50 (HT-29) | GI50 (RXF 393) | GI50 (OVCAR-4) | GI50 (SW-620) | GI50 (OVCAR-5) | GI50 (HCC 2998) | GI50 (HCT-15) [µM] | GI50 (TK-10) | GI50 (UACC-62) | GI50 (CAKI-1) | GI50 (NCI-H23) | GI50 (SF-539) | GI50 (SF-295) | GI50 (NCI-H522) | GI50 (A549) | GI50 (HOP-92) | GI50 (OVCAR-3) | GI50 (SK-OV-3)
COc1ccc2[nH]c3c4c(ccc3c2c1)C(=O)C=CC4=O | 16.4 µM (inactive) | 21.6 µM (inactive) | 20.3 µM (inactive) | 2.48 µM (inactive) | 15 µM (inactive) | 2.39 µM (inactive) | 20.4 µM (inactive) | 22.5 µM (inactive) | 4.42 | 14.6 µM (inactive) | 16.7 µM (inactive) | 9.25 µM (inactive) | 12.7 µM (inactive) | 15.7 µM (inactive) | 24.7 µM (inactive) | 1.74 µM (inactive) | 28.6 µM (inactive) | 3.34 µM (inactive) | 8.36 µM (inactive) | 43.4 µM (inactive)
NS(=O)(=O)c1ccc(NC2(C(=O)O)CCCC2)cc1 | > 100 µM (inactive) | > 100 µM (inactive) | > 100 µM (inactive) | > 100 µM (inactive) | > 100 µM (inactive) | > 100 µM (inactive) | > 100 µM (inactive) | > 100 µM (inactive) | > 100 | > 100 µM (inactive) | > 100 µM (inactive) | > 100 µM (inactive) | > 100 µM (inactive) | > 100 µM (inactive) | > 100 µM (inactive) | > 100 µM (inactive) | > 100 µM (inactive) | > 100 µM (inactive) | > 100 µM (inactive) | > 100 µM (inactive)
COc1cc(/C=C2\C[C@H]3[C@@H]4CC=C5C[C@@H](O)CC[C@]5(C)[C@H]4CC[C@]3(C)[C@H]2O)cc(OC)c1OC | 34 µM (inactive) | 11 µM (inactive) | 11.1 µM (inactive) | 5.58 µM (inactive) | 7.45 µM (inactive) | 26.2 µM (inactive) | 26.3 µM (inactive) | 17.3 µM (inactive) | 7.05 | 14.1 µM (inactive) | 10.3 µM (inactive) | 20.2 µM (inactive) | 10.3 µM (inactive) | 14.3 µM (inactive) | 4.84 µM (inactive) | 19.1 µM (inactive) | 9.79 µM (inactive) | 12.7 µM (inactive) | 12.2 µM (inactive) | 25.5 µM (inactive)
C/C(=N\Nc1ccccc1)C(CN(C)C)C(c1ccccc1)c1c(O)c2ccccc2oc1=O (stereo not given) | > 100 µM (inactive) | > 100 µM (inactive) | > 100 µM (inactive) | > 100 µM (inactive) | > 100 µM (inactive) | > 100 µM (inactive) | > 100 µM (inactive) | > 100 µM (inactive) | > 100 | > 100 µM (inactive) | > 100 µM (inactive) | > 100 µM (inactive) | > 100 µM (inactive) | > 100 µM (inactive) | > 100 µM (inactive) | > 100 µM (inactive) | > 100 µM (inactive) | > 35.2 µM (inactive) | > 100 µM (inactive) | > 100 µM (inactive)
